In patent US9914750B2, “Synthetic peptides and peptide mimetics” (University of Louisville Research Foundation, priority 2007, dated 2018):
“Also recorded” adds a separate entry of the source. Read-outs that look alike come from different tables or passages of the source. No end group written: not given here.

Tests used:
sheep red blood cells = experiment: Hemagglutination assay; type: cell-based; conditions: PBS, absence of serum, 2 h
Protocol: FIG. 22: Hemagglutination of sheep red blood cells. RBCs were washed in PBS and incubated for 2 h in microtiter plates in PBS±5% fetal calf serum. Peptide concentrations were 83 μg/ml. The microtiter plate was imaged. Agglutinated red blood cells form a wide mat of cells, while non-agglutinated cells form a button shaped pellet.
Briefly, unmodified sheep erythrocytes (Cappel, M P Biomedicals, Irvine, Calif.) were washed in PBS and suspended at 1% in PBS. Diluted erythrocytes and 20 μg/ml of each peptide in PBS were mixed in polypropylene microtiter plates (120 μl per well) and incubated for 2 h at 35° C. The plates were imaged on a Kodak Image station.

RAW 264.7 cells = experiment: Assay for inflammation: TNFα secretion with peptides alone (ELISA); type: cell-based, mouse
Protocol: (§1) FIGS. 15A and 15B. FIG. 15A. Inhibition of endotoxin-stimulated TNFα secretion. RAW 264.7 macrophage cells were stimulated with 100 ng/ml LPS in the presence or absence of the PSP-derived peptides GK7, KL11 or GL13 (200 μg/ml). Polymyxin B (PMX) was used as a positive control. Further controls consisted of peptides alone without LPS stimulation. TNFα secretion was analyzed by ELISA of the RAW culture medium. The data are from triplicate RAW culture dishes for each condition. *) different from LPS alone P<0.03, **) P<0.0002. FIG. 15B. Dose response curve for the inhibition of LPS-induced TNFα secretion by GL-13.
To determine if the PSP peptides cause an inflammatory response in RAW 264.7 cells, the cells were incubated with each peptide for 24 h and TNFα secretion was quantitated by ELISA.
The vaccine adjuvant monophosphoryl lipid A (MPLA) a low-toxicity derivative of LPS was used to stimulate RAW cells in the presence or absence of PSP peptides (200 μg/ml) or the anti-inflammatory peptide polymyxin B (PMX). Control samples were incubated with the peptides alone.

[1] = test system: RAW 264.7 macrophage cells; experiment: LPS-induced TNFα secretion (ELISA); type: cell-based, mouse; conditions: P. aeruginosa LPS
Protocol: as §1
In the present experiments, the redesigned PSP peptides (GL13, KL11) were tested for their effect on TNFα secretion and compared to GK7.

[2] = test system: LPS-binding protein (LBP); experiment: Inhibition of LPS binding to LPS-binding protein (ELISA)
Protocol: Analysis of the PSP sequence indicated three possible regions of biological activity. Initially, three peptides corresponding to the PSP sequence in these regions were designed and used in these studies. The initial step in the inflammatory cascade is the binding of LPS to LPS-binding protein. This binding was inhibited by preincubation of LPS with each of the three peptides. […] The binding of LPS to LPB was analyzed to ELISA. 0% inhibition (100% binding) was determined in the absence of inhibitors while 100% inhibition was determined in the presence of the inhibitor polymyxin B. The inhibition of each peptide is determined relative to the effect of polymyxin B.

[3] = test system: P. aeruginosa PAO1 on MDCK cell monolayers; experiment: Epithelial invasion assay, MDCK monolayer penetration; type: cell-based, Pseudomonas aeruginosa; conditions: 24 h
Protocol: FIG. 10. MDCK monolayer penetration: MDCK cells were cultured on filter supports and infected on the apical side with 10^6 CFU/ml of P. aeruginosa PAO1 (PAO1) or bacteria mixed with PSP peptides, as indicated. Control MDCK cells were incubated with buffer alone (HOAc). After 24 h incubation at 37° C., the OD 600 nm was determined for the media in the basolateral compartment to detect bacterial penetration of the MDCK cell monolayer.
To determine if PSP peptides prevent the penetration of epithelial cell monolayers, the epithelial cell line MDCK was cultured on permeable membrane filters. P. aeruginosa were added to the apical medium of confluent MDCK cell monolayers and bacterial penetration was determined as the number of bacteria recovered from the basolateral medium after a 24 h incubation.

P. aeruginosa = experiment: Antibacterial activity in vivo, Romaine lettuce infection model; set-up: species or system Pseudomonas aeruginosa; conditions: 200 μg/ml peptide injected with bacteria, scored after 2-3 days
Protocol: FIG. 4: Antibacterial activity in vivo. Romaine lettuce leaves were injected with P. aeruginosa (10^8 cells/nil) in the presence or absence of 200 μg/ml of antibacterial peptides. After 2-3 days incubation the injection sites were scored for infection on a scale of 0-100% relative to the no-bacteria (0% infection) and bacteria-only controls (PAO1) (100%). Data are from six independent experiments and are shown as mean±SEM, N=4−12. *) P<0.04, **) P<0.003.
Romaine lettuce heads were purchased from local grocery stores. Outer leaves were removed and undamaged leaves were selected. The leaves were rinsed in 0.1% bleach and incubated in plastic containers on filter paper moistened with 10 mM MgSO4. Overnight cultures of P. aeruginosa were diluted to 10^8 CFU/ml in 10 mM MgSO4 and supplemented with 200 μg/ml of each peptide. Ten μl (10^6 CFU, 2 μg peptide) were injected into the midrib of each leaf using a micro pipetter. Blank controls were incubated with buffer only, and bacterial controls were incubated without peptide. The plastic trays were covered and incubated at 35° C. Leaves were inspected daily for browning around the injection site or along the midrib. Generally rotting or moldy leaves were discarded. Infection was scored on a scale from 0% to 100% relative to blank controls and bacterial controls, respectively.

P. aeruginosa PAO1 = experiment: Biofilm formation / bacterial adhesion assay, PVC microtiter plates, crystal violet; type: cell-based, Pseudomonas aeruginosa; conditions: 50 μg/ml, 6 h
Protocol: FIGS. 7A and 7B: PSP-peptides inhibit biofilm formation. P. aeruginosa PAO1 (overnight cultures, diluted 1:100 were incubated with 50 μg/ml of each peptide (LL37, GK7, GL13, KL11) or lysozyme for 6 h under aerobic (FIG. 7A) or reduced oxygen (anaerobic) (FIG. 7B) conditions. The OD 570 (growth) was determined and the attached cells were then quantitated by staining with crystal violet (biofilm). Growth and biofilm values were normalized against the mean of samples without peptides (HOAc) and expressed as mean±SEM. The data in panel A are from three independent experiments, N=22−24. The data in panel B are from two independent experiments, N=16. Lysozyme (Lyz) data are from a single experiment, N=8. *) different from Growth, P<0.002
(§2) Overnight cultures of P. aeruginosa PAO1 were diluted 1:100 in MHB and 100 μl/well were incubated with 5 μl of LL-37, GK-7, GL-13, KL-11 or lysozyme (1 mg/ml) in PVC microtiter plates. The plates were incubated for 6 h at 32° C. under aerobic or reduced oxygen conditions. Bacterial growth was quantitated spectrophotometrically at 570 nm. Twenty-five μl of 1% crystal violet in dH2O was added to each well and incubated 20 min at room temperature. The wells were emptied and washed three times in dH2O and then incubated for 30 min with 200 μl of 95% ethanol. The OD at 570 nm was determined as a measure of biofilm formation. Growth and biofilm values were normalized against the mean of samples incubated with 0.01% acetic acid without peptides.
as §2, with “μl of the bacterial suspension was mixed” for “μl/well were incubated”, “50 μg/ml” for “5 μl”, “lysozyme” for “lysozyme (1 mg/ml)”

[4] = test system: Aggregatibacter (Actinobacillus) actinomycetemcomitans JP2; type: cell-based; conditions: 4 h, reduced oxygen
Protocol: The PSP peptides GL13, GK7 and KL11, lysozyme, LL37 or no peptide (BLK) were incubated with P. aeruginosa (FIG. 3A) or A. actinomycetemcomitans (FIG. 3B). P. aeruginosa PAO1 (10^5 cells/ml) were incubated for 2 h at 35° C. with 10 μg/ml (open bars) or 100 μg/ml (shaded bars) of each peptide. A. actinomycetemcomitans JP2 (10^5 cells/nil) were incubated for 4 h at 37° C. under reduced oxygen conditions. Bacterial cultures were diluted and plated on LB agar (Pseudomonas) or BHI agar plates (A.a., low oxygen incubation) and surviving CFUs enumerated. The data are shown as mean±SEM, P. aeruginosa: N=8−22 at 100 μg/ml, N=2−10 at 10 μg/ml. A. actinomycetemcomitans: N=3. *) P<0.0001, **) P<0.004, ***) P<0.02
Overnight cultures of bacteria were pelleted and resuspended in 10 mM sodium phosphate, pH 7.4 (10^5 CFU/ml). Diluted bacteria (100 μl) were incubated with 10 or 100 μg/ml of each peptide in 10 mM sodium phosphate, pH 7.4. P aeruginosa PAO1 were incubated for 2 h at 35° C. while A. actinomycetemcomitans JP2 were incubated for 4 h at 37° C. under reduced oxygen conditions. […]
As a second antibacterial assay, bactericidal activity was determined by incubating the peptides (10 or 100 μg/ml) with P. aeruginosa, A. actinomycetemcomitans or S. gordonii in 10 mM phosphate buffer. […]

[5] = test system: P. aeruginosa with RAW 264.7 macrophage cells; experiment: Gentamicin protection assay (phagocytosis / clearance by macrophages); type: cell-based, mouse; conditions: 100 μg/ml peptide
Protocol: FIG. 13. Phagocytosis of P. aeruginosa: Bacteria (5×10^8 CFU/ml) were incubated with buffer (Blk), GK-7 or GL-13 (100 μg/ml) for 1 h and added to RAW cells for 2 h. The RAW cells were washed and incubated with […] for 90 min. The cells were lysed in 1% Tween-20 and the diluted contents plated on agar. CFU were enumerated and expressed relative to the mean of the blank in each of three experiments (N=9) *) P=0.025.
Overnight cultures of P. aeruginosa were diluted 1:5 in PBS and incubated for 1 h at room temperature with PSP peptides (100 μg/ml) or with an equivalent amount of 0.01% acetic acid. Aliquots (500 μl) of these samples were added to RAW 264.7 macrophage cells cultured in 24-well plates and incubated for 2 h at 37° C., 5% CO2. The cells were washed in DMEM and then incubated with DMEM containing 200 μg/ml Gentamicin for 90 min at 37° C., 5% CO2. The cells were again washed with DMEM and the incubated with 200 μl/well of PBS containing 1% Tween 20 for 5 min at room temperature. The cell extracts were diluted in LB and plated on LB agar plates. CFU were enumerated after overnight incubation at 37° C.

Substance: polymyxin B [reference compound]
- hemagglutination (words) (sheep red blood cells): did not cause hemagglutination
- TNFα secretion with peptide alone (RAW 264.7 cells; no LPS stimulation): exhibited toxicity to RAW cells, as evidenced by increased TNFα release
- inhibition of LPS-induced TNFα secretion [1]: about 50%
- effect on LPS binding to LBP [2]: Strong inhibition

Substance: KLLNNVISKLL [KL11, KLLNNVISKLL]
- hemagglutination (words) (sheep red blood cells): did not cause hemagglutination
- penetration / invasion of MDCK cell monolayers by P. aeruginosa [3]: could inhibit the penetration
- infection of lettuce leaves (P. aeruginosa): significantly reduced the infection; also recorded: significantly inhibit P. aeruginosa infection
- bacterial growth in biofilm/adhesion assay (P. aeruginosa PAO1; aerobic): only a small (non-significant) reduction of bacterial growth
- inhibition of biofilm formation (adhesion) (P. aeruginosa PAO1; aerobic): 40%
- biofilm formation (P. aeruginosa PAO1; reduced oxygen conditions): reduced biofilm formation under low oxygen conditions
- survival of A. actinomycetemcomitans [4]: 40%

Substance: GQIINLK [GK7, GQIINLK]
- bacterial clearance / phagocytosis [5]: had no effect on clearance
- hemagglutination (words) (sheep red blood cells): did not cause hemagglutination
- TNFα secretion with peptide alone (RAW 264.7 cells): small increase in TNFα secretion
- infection of lettuce leaves (P. aeruginosa): neither GK-7 nor LL37 showed a significant effect on infection
- bacterial growth in biofilm/adhesion assay (P. aeruginosa PAO1; aerobic): affected neither growth nor adhesion
- biofilm formation / adhesion (P. aeruginosa PAO1; aerobic): affected neither growth nor adhesion
